Reference: patent US20230331690A1, “THC DERIVATIVES, ORAL DOSAGE FORMS COMPRISING SAME, USES THEREOF FOR TREATING DISEASES AND DISORDERS AND SYNTHESIS THEREOF” (BAR-ILAN UNIVERSITY, priority 2020, published 2023)
Values joined by “and” are separate entries in the source; they are usually repeats but may differ in a detail not shown here. Equal entries are not always repeated.

System: hind paw of mice
Experiment: Electronic Von-Frey mechanical sensitivity (withdrawal thresholds) after Paclitaxel-induced neuropathic pain
Type: in vivo
Conditions: for Withdrawal test, test 1 / Withdrawal test, test 4 / Withdrawal test, test 5 / Withdrawal test, test 2 / Withdrawal test, test 3 / Withdrawal test, test 6: per animal; for Withdrawal test, All group average: 8 mice; for Withdrawal test, Average: average per animal; for Withdrawal test, test 6: additional test
Procedure: Mechanical sensitivity was evaluated by measuring the changes in tactile sensitivity in the hind paw of mice, using an Electronic Von-Frey apparatus (EVF). Withdrawal thresholds were measured, using the EVF apparatus, first at baseline (time=0) and then following drug, in a few periods after administration, by applying an accurate force on specific areas of the skin and measuring the needed force for the mouse to lift its paw.
Paclitaxel was utilized for the stimulation of a chemotherapy-induced neuropathic pain. Paclitaxel is anti-cancer chemotherapy drug classified as a “plant alkaloid” and an “antimicrotubule agent”.
Mice were divided into three groups of 8 mice each, as follows: • (a) Group no. 1—Morphine as positive control; • (b) Group no. […] 3—synthetic THC derivative 9-Desmethyl THC.
A portion of Paclitaxel was administered to each mouse by i.p. injection, on days 1, 3, 5 and 7 from the beginning of the experiment. At day 8, withdrawal thresholds were measured first at baseline (time=0), thereafter each mouse received a single portion of a drug substance, at 5 mg/Kg body weight concentration, by oral gavage and measurements took place.
The first checking point was 1 hour after administration of each drug. For every mouse, its threshold for the pain perception in which it removes its hind paw after the stabbing of the Von-Frey hair has been checked. Needed force (in gram force units) was measured each time and was recorded for every checking. This test was repeated 5 times for each mouse consecutively.
This procedure was repeated for all the three groups. The next checking point was 3 hours after administration, where the last withdrawal thresholds measurements were performed on the next morning, on day 9, which was 24 hours after administration.
Morphine was utilized as a positive control where group no. 1 mice received morphine (dissolved in a saline solution (0.9%) and injected subcutaneously) as an analgesic agent, prior to the mechanical sensitivity tests.
The tests described in this example are complicated and depend on numerous factors. Accordingly, results above 10.0 gram force (marked with an asterisk) were not included in the evaluation of the experimental data. In cases of exceptional results, an additional test was performed mouse (test 6) in order to assure the exceptional result.

[1] = t = 1 h after 5 mg/Kg, * values excluded
[2] = t = 3 h after 5 mg/Kg, * values excluded
[3] = t = 24 h after 5 mg/Kg, * values excluded

## [2H]C([2H])([2H])C1=C[C@H]2c3c(O)cc(CCCCC)cc3OC(C)(C)[C@@H]2CC1([2H])[2H] [9-CD3-(8-D2)-THC]
T = 1 h after 5 mg/Kg single dose (oral gavage; morphine s.c.), * values >10.0 excluded from evaluation
  Withdrawal test, test 1: 4.7 gram force and 4.8 gram force and 6.0 gram force (2×) and 5.0 gram force and 4.5 gram force and 6.1 gram force and 7.1 gram force
T = 1 h after 5 mg/Kg
  Withdrawal test, All group average: 5.68 gram force
  Withdrawal test, Average: 4.54 gram force and 6.14 gram force and 6.76 gram force and 5.24 gram force and 5.64 gram force and 4.88 gram force and 6.16 gram force and 6.06 gram force
  Withdrawal test, test 4: 4.3 gram force and 4.5 gram force and 5.9 gram force and 6.7 gram force and 7.1 gram force and 4.7 gram force and 5.3 gram force and 4.2 gram force
  Withdrawal test, test 5: 5.4 gram force and 8.7 gram force and 7.7 gram force and 5.2 gram force and 4.3 gram force and 4.7 gram force and 4.5 gram force and 8.5 gram force
[1]
  Withdrawal test, test 2: 4.1 gram force and 5.8 gram force and 6.5 gram force and 4.0 gram force and 4.8 gram force and 4.6 gram force and 8.9 gram force and 5.6 gram force
  Withdrawal test, test 3: 4.2 gram force and 6.9 gram force and 7.7 gram force and 5.3 gram force and 7.5 gram force and 4.3 gram force and 6.1 gram force and 4.9 gram force
T = 3 h after 5 mg/Kg
  Withdrawal test, All group average: 5.67 gram force
  Withdrawal test, Average: 5.16 gram force and 6.42 gram force and 4.72 gram force and 6.08 gram force (2×) and 5.64 gram force and 5.92 gram force and 5.30 gram force
  Withdrawal test, test 2: 5.9 gram force and 5.4 gram force and 5.0 gram force and 5.1 gram force (2×) and 9.2 gram force and 7.2 gram force and 6.5 gram force
  Withdrawal test, test 4: 4.7 gram force and 9.2 gram force and 4.3 gram force and 5.9 gram force and 6.2 gram force and 6.6 gram force and 5.2 gram force and 4.6 gram force
  Withdrawal test, test 5: 5.8 gram force and 6.7 gram force and 4.0 gram force (2×) and 6.4 gram force and 4.5 gram force and 4.8 gram force and 5.3 gram force
  Withdrawal test, test 6: 4.1 gram force and 4.9 gram force (2×) and 4.3 gram force
[2]
  Withdrawal test, test 1: 4.6 gram force and 4.4 gram force (2×) and 4.7 gram force and 6.9 gram force and 8.2 gram force and 7.6 gram force and 4.5 gram force
  Withdrawal test, test 3: 4.8 gram force and 6.4 gram force and 5.6 gram force (3×) and *12.8 gram force and 4.7 gram force and 4.9 gram force
T = 24 h after 5 mg/Kg
  Withdrawal test, All group average: 5.28 gram force
  Withdrawal test, Average: 4.70 gram force and 5.96 gram force and 4.56 gram force and 6.33 gram force and 4.98 gram force and 5.32 gram force and 4.80 gram force and 5.56 gram force
  Withdrawal test, test 1: 6.0 gram force and 7.5 gram force and 4.0 gram force and 7.6 gram force and 5.0 gram force and 4.4 gram force and 4.9 gram force and 4.5 gram force
  Withdrawal test, test 2: 4.6 gram force and 6.0 gram force and 4.0 gram force and 7.5 gram force and 6.5 gram force and 5.3 gram force and 5.7 gram force and 5.0 gram force
  Withdrawal test, test 3: 4.6 gram force and 4.2 gram force and 4.0 gram force (2×) and 5.6 gram force and 5.4 gram force and 5.3 gram force and 6.8 gram force
  Withdrawal test, test 6: 4.5 gram force
T = 24 h after 5 mg/Kg, group average vs baseline
  Withdrawal test, Change from b.l.: −2.6%
[3]
  Withdrawal test, test 4: 4.3 gram force (2×) and 4.0 gram force and 6.8 gram force (2×) and *10.3 gram force and 4.1 gram force and 5.2 gram force
  Withdrawal test, test 5: 4.0 gram force (3×) and 8.1 gram force and 4.6 gram force and 5.1 gram force and 4.7 gram force and 6.3 gram force
